Results from BindingDB's records for doi:10.1021/jm0704595 (University of Turin, 2007).
Where “and” joins values, the source holds several entries; their conditions need not be identical. Equal values may be shown once.

Test: Agonist activity at adrenergic beta2 receptor in guinea pig tracheal rings assessed as myorelaxing activity on carbachol-induced contraction in presence of propranolol

For `Cc1c(COc2ccc(CC(C)NCC(O)c3cc(O)cc(O)c3)cc2)no[n+]1[O-]` (stereo unspecified) [5-(1-hydroxy-2-{1-methyl-2-[4-(4-methyl-5-oxy-furazan-3-ylmethoxy)-phenyl]-ethylamino}-ethyl)-benzene-1,3-diol], which EC50 is on record?
The EC50 was 55 µM and 54 µM.
